In patent publication US20250129344A1, “MODIFIED GLUTAMATE DEHYDROGENASE AND APPLICATION THEREOF” (Hunan Lier Biotech Co., Ltd., priority 2021, published 2025):
Residue numbers refer to the chain shown, from its start.

Tests used:
Assay type in all cases: biochemical
Details in all cases: PPO 5-100 mM, NADPH 0.15 mM, NH4Cl 50 mM, PBS pH 7.5, 30° C., diluted crude enzyme, 340 nm
[1] = tested on: Bacillus velezensis glutamate dehydrogenase (BvGluDH, SEQ ID NO: 1) variant A175G, SEQ ID NO: 3; test: Dynamic properties (Michaelis-Menten) of BvGluDH mutant, PPO reductive amination
Experimental: (§1) A plurality of reaction systems (200 μL) comprising PBS of 100 mM pH 7.5 (pH was adjusted with aqueous ammonia solution), NADPH (reductive) of 0.15 mM, NH4Cl of 50 mM, diluted (500 folds) crude enzyme solution of 10% volume and the substrate PPO at various concentrations (5-100 mM) were formulated on a 96-well plate. The intensity of the UV absorption at 340 nm was detected at 30° C., and the rate of change in absorption over time (mA/min) was recorded. The obtained parameters were plugged into Michaelis-Menten equation, in which the reaction velocity was calculated with the rate of change in absorption.
(§2) The mutants were prepared with the coding nucleic acid of BvGluDH (SEQ ID NO: 1) as the template, and the enzyme activities and the dynamic parameters Vmax and Km were measured, according to the method of Example 1. The resulted mutants and the enzyme activities and the dynamic parameters thereof are shown in Table 1, and the relative enzyme activity means the percentage of the enzyme activity of the mutant to the enzyme activity of the mutant of SEQ ID NO: 3.

[2] = tested on: Bacillus velezensis glutamate dehydrogenase (BvGluDH, SEQ ID NO: 1) variant A175G-A182R, SEQ ID NO: 11; test: as above
Experimental: as §1, §2

[3] = tested on: Bacillus velezensis glutamate dehydrogenase (BvGluDH, SEQ ID NO: 1) variant A175G-G181K, SEQ ID NO: 9; test: as above
Experimental: as §1, §2

[4] = tested on: Bacillus velezensis glutamate dehydrogenase (BvGluDH, SEQ ID NO: 1) variant A175G-G181R, SEQ ID NO: 10; test: as above
Experimental: as §1, §2

[5] = tested on: Bacillus velezensis glutamate dehydrogenase (BvGluDH, SEQ ID NO: 1) variant A175G-I133V, SEQ ID NO: 6; test: as above
Experimental: as §1, §2

[6] = tested on: Bacillus velezensis glutamate dehydrogenase (BvGluDH, SEQ ID NO: 1) variant A175G-L104C, SEQ ID NO: 4; test: as above
Experimental: as §1, §2

[7] = tested on: Bacillus velezensis glutamate dehydrogenase (BvGluDH, SEQ ID NO: 1) variant A175G-P132L, SEQ ID NO: 5; test: as above
Experimental: as §1, §2

[8] = tested on: Bacillus velezensis glutamate dehydrogenase (BvGluDH, SEQ ID NO: 1) variant A175G-V173G, SEQ ID NO: 8; test: as above
Experimental: as §1, §2

[9] = tested on: Bacillus velezensis glutamate dehydrogenase (BvGluDH, SEQ ID NO: 1) variant A175G-V173G-A182R, SEQ ID NO: 21; test: as above
Experimental: as §1, §2

[10] = tested on: Bacillus velezensis glutamate dehydrogenase (BvGluDH, SEQ ID NO: 1) variant A175G-V173S, SEQ ID NO: 7; test: as above
Experimental: as §1, §2

[11] = molecular target: T1, Lysinibacillus sphaericus glutamate dehydrogenase (LsGluDH, SEQ ID NO: 2) variant A175G, SEQ ID NO: 31 (Lysinibacillus pinottii, UniProt A0ABT2DNY0, A175G); test: Dynamic properties (Michaelis-Menten) of LsGluDH mutant, PPO reductive amination
T1 sequence (A0ABT2DNY0 1-457 A175G): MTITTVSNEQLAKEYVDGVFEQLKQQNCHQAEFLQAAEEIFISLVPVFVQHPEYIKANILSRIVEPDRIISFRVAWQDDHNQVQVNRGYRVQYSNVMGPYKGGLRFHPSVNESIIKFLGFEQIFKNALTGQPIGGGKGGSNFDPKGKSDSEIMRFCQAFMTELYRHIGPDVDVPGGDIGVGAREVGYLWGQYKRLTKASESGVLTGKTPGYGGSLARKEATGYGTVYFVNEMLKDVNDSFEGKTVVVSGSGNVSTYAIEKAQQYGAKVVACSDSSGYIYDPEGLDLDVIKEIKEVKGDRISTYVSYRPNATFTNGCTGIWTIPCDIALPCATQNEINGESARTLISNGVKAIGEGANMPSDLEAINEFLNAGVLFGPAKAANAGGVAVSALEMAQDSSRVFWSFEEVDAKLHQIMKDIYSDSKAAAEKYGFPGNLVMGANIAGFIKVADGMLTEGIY
Experimental: as §1
as §2, with “LsGluDH” for “BvGluDH”, “2)” for “1)”, “2,” for “1,”, “31.” for “3.”

[12] = molecular target: T2, Lysinibacillus sphaericus glutamate dehydrogenase (LsGluDH, SEQ ID NO: 2) variant A175G-V173G, SEQ ID NO: 35 (Lysinibacillus pinottii, UniProt A0ABT2DNY0, A175G/V173G); test: as above
T2 sequence (A0ABT2DNY0 1-457 V173G/A175G): T1 sequence (A0ABT2DNY0 1-457 A175G) with V173G
Experimental: as §1
as §2, with “LsGluDH” for “BvGluDH”, “2)” for “1)”, “2,” for “1,”, “31.” for “3.”

CP(=O)(O)CCC(=O)C(=O)O [PPO, 2-carbonyl-4-(hydroxymethylphosphono) butyric acid]
Km [1]: 73 mM | Vmax [1]: 60 mA/min | Km [2]: 46 mM | Vmax [2]: 61 mA/min | Km [3]: 80 mM | Vmax [3]: 70 mA/min | Km [4]: 84 mM | Vmax [4]: 77 mA/min | Km [5]: 43 mM | Vmax [5]: 59 mA/min | Km [6]: 34 mM | Vmax [6]: 60 mA/min | Km [7]: 32 mM | Vmax [7]: 56 mA/min | Km [8]: 53 mM | Vmax [8]: 80 mA/min | Km [9]: 23 mM | Vmax [9]: 71 mA/min | Km [10]: 52 mM | Vmax [10]: 79 mA/min | Km [11]: 49 mM | Vmax [11]: 39 mA/min | Km [12]: 49 mM | Vmax [12]: 64 mA/min
